Source: the NIST ThermoML archive (doi:10.1016/j.jct.2017.06.001)
± gives the expanded uncertainty stated by the source.

Experiment: xn = mol fraction of the nth substance listed
Settings: 100 kPa, Liquid; for speed of sound: Frequency=5 MHz, Pulse-echo method; for mass density: Vibrating tube method

OCCCCCO [1,5-pentanediol] + O
Settings	mass density [kg/m3]	speed of sound [m/s]
313.15 K, x1 = 0.005	991.7 ± 0.52	–
313.15 K, x1 = 0.0101	991.52 ± 1	–
313.15 K, x1 = 0.0196	991.54 ± 1	–
313.15 K, x1 = 0.0251	991.82 ± 1	–
313.15 K, x1 = 0.0304	992.13 ± 1	–
313.15 K, x1 = 0.05	992.81 ± 1	–
313.15 K, x1 = 0.0769	993.24 ± 1	–
313.15 K, x1 = 0.1002	993.63 ± 1.1	–
313.15 K, x1 = 0.1124	–	1653.6 ± 1.2
313.15 K, x1 = 0.1158	–	1654.3 ± 1.2
313.15 K, x1 = 0.1193	–	1654.9 ± 1.2
313.15 K, x1 = 0.1244	–	1655.7 ± 1.2
313.15 K, x1 = 0.1287	–	1656.2 ± 1.2
313.15 K, x1 = 0.1321	–	1656.6 ± 1.2
313.15 K, x1 = 0.1361	–	1656.9 ± 1.2
313.15 K, x1 = 0.1413	–	1657.3 ± 1.2
313.15 K, x1 = 0.1438	993.61 ± 1.1	–
313.15 K, x1 = 0.1453	–	1657.5 ± 1.2
313.15 K, x1 = 0.1493	–	1657.7 ± 1.3
313.15 K, x1 = 0.1538	–	1657.8 ± 1.3
313.15 K, x1 = 0.1569	–	1657.8 ± 1.3
313.15 K, x1 = 0.1592	–	1657.9 ± 1.3
313.15 K, x1 = 0.1624	–	1657.9 ± 1.3
313.15 K, x1 = 0.1645	–	1657.9 ± 1.3
313.15 K, x1 = 0.1677	–	1657.8 ± 1.3
313.15 K, x1 = 0.1703	–	1657.8 ± 1.3
313.15 K, x1 = 0.174	–	1657.7 ± 1.3
313.15 K, x1 = 0.1785	–	1657.6 ± 1.3
313.15 K, x1 = 0.1796	–	1657.5 ± 1.3
313.15 K, x1 = 0.1845	993.02 ± 1.1	–
313.15 K, x1 = 0.1854	–	1657.3 ± 1.3
313.15 K, x1 = 0.1882	–	1657.2 ± 1.3
313.15 K, x1 = 0.1986	–	1656.6 ± 1.3
313.15 K, x1 = 0.2089	–	1656 ± 1.3
313.15 K, x1 = 0.2219	–	1655 ± 1.3
313.15 K, x1 = 0.2336	–	1654.1 ± 1.3
313.15 K, x1 = 0.2458	–	1653 ± 1.3
313.15 K, x1 = 0.2503	991.87 ± 1.2	–
313.15 K, x1 = 0.2586	–	1651.8 ± 1.3
313.15 K, x1 = 0.2742	–	1650.3 ± 1.4
313.15 K, x1 = 0.2871	–	1649 ± 1.4
313.15 K, x1 = 0.3	990.74 ± 1.2	–
313.15 K, x1 = 0.3037	–	1647.3 ± 1.4
313.15 K, x1 = 0.3173	–	1645.8 ± 1.4
313.15 K, x1 = 0.3343	989.99 ± 1.3	–
313.15 K, x1 = 0.3466	–	1642.6 ± 1.4
313.15 K, x1 = 0.366	–	1640.3 ± 1.4
313.15 K, x1 = 0.3864	–	1637.9 ± 1.5
313.15 K, x1 = 0.401	–	1636.1 ± 1.5
313.15 K, x1 = 0.4171	988.35 ± 1.4	–
313.15 K, x1 = 0.4198	–	1633.7 ± 1.5
313.15 K, x1 = 0.4339	–	1631.8 ± 1.5
313.15 K, x1 = 0.4516	–	1629.5 ± 1.5
313.15 K, x1 = 0.454	987.5 ± 1.4	–
313.15 K, x1 = 0.4639	–	1627.8 ± 1.6
313.15 K, x1 = 0.4723	–	1626.7 ± 1.6
313.15 K, x1 = 0.4915	–	1624 ± 1.6
313.15 K, x1 = 0.5003	986.6 ± 1.5	–
313.15 K, x1 = 0.5111	–	1621.3 ± 1.6
313.15 K, x1 = 0.5315	–	1618.4 ± 1.6
313.15 K, x1 = 0.5362	985.8 ± 1.5	–
313.15 K, x1 = 0.5529	–	1615.4 ± 1.7
313.15 K, x1 = 0.5804	–	1611.5 ± 1.7
313.15 K, x1 = 0.602	–	1608.5 ± 1.7
313.15 K, x1 = 0.6163	–	1606.5 ± 1.8
313.15 K, x1 = 0.6177	984.4 ± 1.7	–
313.15 K, x1 = 0.6349	–	1604 ± 1.8
313.15 K, x1 = 0.6478	983.9 ± 1.7	–
313.15 K, x1 = 0.6533	–	1601.5 ± 1.8
313.15 K, x1 = 0.6749	–	1598.6 ± 1.8
313.15 K, x1 = 0.6932	–	1596.3 ± 1.9
313.15 K, x1 = 0.7025	983 ± 1.8	–
313.15 K, x1 = 0.7095	–	1594.2 ± 1.9
313.15 K, x1 = 0.7237	–	1592.4 ± 1.9
313.15 K, x1 = 0.7448	–	1589.9 ± 1.9
313.15 K, x1 = 0.7504	982.3 ± 1.9	–
313.15 K, x1 = 0.7666	–	1587.3 ± 1.9
313.15 K, x1 = 0.7927	981.6 ± 2	–
313.15 K, x1 = 0.794	–	1584.1 ± 2
313.15 K, x1 = 0.8188	–	1581.3 ± 2
313.15 K, x1 = 0.8485	–	1578 ± 2.1
313.15 K, x1 = 0.8605	980.4 ± 2.1	–
313.15 K, x1 = 0.875	–	1575.1 ± 2.1
313.15 K, x1 = 0.9004	979.7 ± 2.2	–
313.15 K, x1 = 0.9027	–	1572.1 ± 2.2
313.15 K, x1 = 0.9251	–	1569.5 ± 2.2
313.15 K, x1 = 0.9471	–	1566.9 ± 2.2
313.15 K, x1 = 0.9496	978.8 ± 2.3	–
313.15 K, x1 = 0.9652	–	1564.7 ± 2.2
313.15 K, x1 = 0.9777	–	1563.1 ± 2.3
313.15 K, x1 = 0.9877	–	1561.8 ± 2.3
313.15 K, x1 = 0.9953	–	1560.8 ± 2.3
313.15 K, x1 = 1	977.8 ± 2.1	1560.2 ± 2.3
318.15 K, x1 = 0.0005	–	1538 ± 1.2
318.15 K, x1 = 0.0015	–	1540.6 ± 1.2
318.15 K, x1 = 0.0027	–	1543.4 ± 1.2
318.15 K, x1 = 0.0039	–	1546.4 ± 1.2
318.15 K, x1 = 0.0049	–	1548.8 ± 1.2
318.15 K, x1 = 0.0058	–	1550.9 ± 1.2
318.15 K, x1 = 0.0069	–	1553.4 ± 1.2
318.15 K, x1 = 0.008	–	1556 ± 1.2
318.15 K, x1 = 0.0092	–	1558.5 ± 1.2
318.15 K, x1 = 0.0106	–	1561.6 ± 1.2
318.15 K, x1 = 0.0116	–	1563.7 ± 1.2
318.15 K, x1 = 0.0129	–	1566.4 ± 1.2
318.15 K, x1 = 0.0141	–	1568.7 ± 1.2
318.15 K, x1 = 0.0154	–	1571.2 ± 1.2
318.15 K, x1 = 0.0168	–	1573.9 ± 1.2
318.15 K, x1 = 0.0184	–	1576.8 ± 1.2
318.15 K, x1 = 0.0196	–	1578.9 ± 1.2
318.15 K, x1 = 0.0215	–	1582.2 ± 1.2
318.15 K, x1 = 0.0231	–	1584.8 ± 1.2
318.15 K, x1 = 0.0246	–	1587.2 ± 1.2
318.15 K, x1 = 0.0263	–	1589.8 ± 1.2
318.15 K, x1 = 0.0283	–	1592.8 ± 1.2
318.15 K, x1 = 0.0298	–	1594.9 ± 1.2
318.15 K, x1 = 0.0316	–	1597.5 ± 1.2
318.15 K, x1 = 0.0337	–	1600.2 ± 1.2
318.15 K, x1 = 0.0357	–	1602.8 ± 1.2
318.15 K, x1 = 0.0378	–	1605.4 ± 1.2
318.15 K, x1 = 0.0403	–	1608.2 ± 1.2
318.15 K, x1 = 0.043	–	1611.2 ± 1.2
318.15 K, x1 = 0.0456	–	1613.9 ± 1.2
318.15 K, x1 = 0.0487	–	1616.8 ± 1.2
318.15 K, x1 = 0.0503	–	1618.2 ± 1.2
318.15 K, x1 = 0.0516	–	1619.4 ± 1.2
318.15 K, x1 = 0.0548	–	1622.1 ± 1.2
318.15 K, x1 = 0.0584	–	1624.9 ± 1.2
318.15 K, x1 = 0.0657	–	1629.8 ± 1.2
318.15 K, x1 = 0.0682	–	1631.3 ± 1.2
318.15 K, x1 = 0.072	–	1633.3 ± 1.2
318.15 K, x1 = 0.0763	–	1635.4 ± 1.2
318.15 K, x1 = 0.0796	–	1636.9 ± 1.2
318.15 K, x1 = 0.0848	–	1639 ± 1.2
318.15 K, x1 = 0.0893	–	1640.5 ± 1.2
318.15 K, x1 = 0.0963	–	1642.5 ± 1.2
318.15 K, x1 = 0.1022	–	1643.9 ± 1.2
318.15 K, x1 = 0.1063	–	1644.7 ± 1.2
318.15 K, x1 = 0.1107	–	1645.4 ± 1.2
318.15 K, x1 = 0.1147	–	1646 ± 1.2
318.15 K, x1 = 0.1186	–	1646.4 ± 1.2
318.15 K, x1 = 0.1227	–	1646.8 ± 1.2
318.15 K, x1 = 0.1267	–	1647.1 ± 1.2
318.15 K, x1 = 0.1324	–	1647.4 ± 1.2
318.15 K, x1 = 0.138	–	1647.6 ± 1.2
318.15 K, x1 = 0.1421	–	1647.7 ± 1.2
318.15 K, x1 = 0.1467	–	1647.7 ± 1.2
318.15 K, x1 = 0.151	–	1647.7 ± 1.3
318.15 K, x1 = 0.1559	–	1647.6 ± 1.3
318.15 K, x1 = 0.1604	–	1647.4 ± 1.3
318.15 K, x1 = 0.1642	–	1647.3 ± 1.3
318.15 K, x1 = 0.1668	–	1647.1 ± 1.3
318.15 K, x1 = 0.17	–	1647 ± 1.3
318.15 K, x1 = 0.1746	–	1646.7 ± 1.3
318.15 K, x1 = 0.1759	–	1646.6 ± 1.3
318.15 K, x1 = 0.1805	–	1646.3 ± 1.3
318.15 K, x1 = 0.1834	–	1646.1 ± 1.3
